# Target: human σ1 receptor and human μ-opioid receptor
# Assay: Human σ1 receptor radioligand assay and human μ-opioid receptor radioligand assay (μ and σ1 dual binding)
# Parameters: key to μ and σ1 dual binding: +: Both Ki-μ and Ki-σ1>=500 nM; ++: One Ki<500 nM while the other Ki is >=500 nM; +++: Both Ki-μ and Ki-σ1<500 nM; ++++: Both Ki-μ and Ki-σ1<100 nM
# Details: not given
Structure (SMILES),Ki [µM],μ and σ1 dual binding
"CN1CCc2ccccc2C12CCN(CC(=O)N1CCC(F)CC1)CC2 [Example 58, 1-(4-fluoropiperidin-1-yl)-2-(2-methyl-3,4-dihydro-2H-spiro[isoquinoline-1,4′-piperidine]-1′-yl)ethanone]",< 0.5,–
"COC1CCN(C(=O)CN2CCC3(CC2)c2ccccc2CCN3C)CC1 [Example 60, 1-(4-methoxypiperidin-1-yl)-2-(2-methyl-3,4-dihydro-2H-spiro[isoquinoline-1,4′-piperidine]-1′-yl)ethanone]",–,++
"CN1CCc2ccccc2C12CCN(CC(=O)N1CCC(F)(F)CC1)CC2 [Example 61, 1-(4,4-difluoropiperidin-1-yl)-2-(2-methyl-3,4-dihydro-2H-spiro[isoquinoline-1,4′-piperidine]-1′-yl)ethanone]",< 0.5,–
"CN1CCc2ccccc2C12CCN(CC(=O)N1CCC3(CC1)CC3)CC2 [Example 62, 2-(2-methyl-3,4-dihydro-2H-spiro[isoquinoline-1,4′-piperidine]-1′-yl)-1-(6-azaspiro[2.5]octan-6-yl)ethanone]",< 0.1,–
"CCN1CCc2ccccc2C12CCN(CCc1ccccc1)CC2 [Example 63, 2-Ethyl-1′-phenethyl-3,4-dihydro-2H-spiro[isoquinoline-1,4′-piperidine]]",< 0.1,–
"c1ccc(CCN2CCC3(CC2)c2ccccc2CCN3Cc2nccs2)cc1 [Example 64, 2-((1′-phenethyl-3,4-dihydro-2H-spiro[isoquinoline-1,4′-piperidine]-2-yl)methyl)thiazole]",< 0.5,–
"CN1CCc2ccccc2C12CCN(CCN1CCOCC1)CC2 [Example 65, 4-(2-(2-Methyl-3,4-dihydro-2H-spiro[isoquinoline-1,4′-piperidine]-1′-yl)ethyl)morpholine]",< 0.5,–
"CN1CCc2ccccc2C12CCN(CC1CCCCC1)CC2 [Example 66, 1′-(cyclohexylmethyl)-2-methyl-3,4-dihydro-2H-spiro[isoquinoline-1,4′-piperidine]]",< 0.5,–
"CN1CCc2ccccc2C12CCN(CC1CCOCC1)CC2 [Example 67, 2-methyl-1′-((tetrahydro-2H-pyran-4-yl)methyl)-3,4-dihydro-2H-spiro[isoquinoline-1,4′-piperidine]]",–,++
"CN(C)C(=O)CCN1CCC2(CC1)c1ccccc1CCN2C [Example 68, N,N-dimethyl-3-(2-methyl-3,4-dihydro-2H-spiro[isoquinoline-1,4′-piperidine]-1′-yl)propanamide]",< 0.5,–
"CN1CCc2ccccc2C12CCN(CC(=O)c1ccccc1)CC2 [Example 69, 2-(2-methyl-3,4-dihydro-2H-spiro[isoquinoline-1,4′-piperidine]-1′-yl)-1-phenylethanone]",< 0.5,–
"CN1CCc2ccccc2C12CCN(CC(=O)N1CCOCC1)CC2 [Example 70, 2-(2-methyl-3,4-dihydro-2H-spiro[isoquinoline-1,4′-piperidine]-1′-yl)-1-morpholinoethanone]",< 0.5,–
"CN1CCc2ccccc2C12CCN(CC(=O)N1CCCCC1)CC2 [Example 71, 2-(2-methyl-3,4-dihydro-2H-spiro[isoquinoline-1,4′-piperidine]-1′-yl)-1-(piperidin-1-yl)ethanone]",< 0.5,–
"CN(C(=O)CN1CCC2(CC1)c1ccccc1CCN2C)c1ccccc1 [Example 72, N-methyl-2-(2-methyl-3,4-dihydro-2H-spiro[isoquinoline-1,4′-piperidine]-1′-yl)-N-phenylacetamide]",–,++
"CN(C)C(=O)CN1CCC2(CC1)c1ccccc1CCN2C [Example 73, N,N-dimethyl-2-(2-methyl-3,4-dihydro-2H-spiro[isoquinoline-1,4′-piperidine]-1′-yl)acetamide]",–,++
"CN1CCc2ccccc2C12CCN(CCC1CCOCC1)CC2 [Example 74, 2-methyl-1′-(2-(tetrahydro-2H-pyran-4-yl)ethyl)-3,4-dihydro-2H-spiro[isoquinoline-1,4′-piperidine]]",< 0.5,–
"CN1CCc2ccccc2C12CCN(CCc1ccccn1)CC2 [Example 75, 2-methyl-1′-(2-(pyridin-2-yl)ethyl)-3,4-dihydro-2H-spiro[isoquinoline-1,4′-piperidine]]",< 0.5,–
"CN1CCc2ccccc2C12CCN(CCc1cccnc1)CC2 [Example 76, 2-methyl-1′-(2-(pyridin-3-yl)ethyl)-3,4-dihydro-2H-spiro[isoquinoline-1,4′-piperidine]]",< 0.5,–
"COCCN1CCC2(CC1)c1ccccc1CCN2C [Example 77, 1′-(2-methoxyethyl)-2-methyl-3,4-dihydro-2H-spiro[isoquinoline-1,4′-piperidine]]",–,++

Structure (SMILES),Ki [µM],μ and σ1 dual binding
"CC(C)OCCN1CCC2(CC1)c1ccccc1CCN2C [Example 78, 1′-(2-isopropoxyethyl)-2-methyl-3,4-dihydro-2H-spiro[isoquinoline-1,4′-piperidine]]",< 0.5,–
"CN1CCc2ccccc2C12CCN(CCN1CCCCC1)CC2 [Example 79, 2-methyl-1′-(2-(piperidin-1-yl)ethyl)-3,4-dihydro-2H-spiro[isoquinoline-1,4′-piperidine]]",< 0.5,–
"CN(C(=O)CCN1CCC2(CC1)c1ccccc1CCN2C)c1ccccc1 [Example 81, N-methyl-3-(2-methyl-3,4-dihydro-2H-spiro[isoquinoline-1,4′-piperidine]-1′-yl)-N-phenylpropanamide]",–,++
"CN1CCc2ccccc2C12CCN(Cc1ccccn1)CC2 [Example 82, 2-methyl-1′-(pyridin-2-ylmethyl)-3,4-dihydro-2H-spiro[isoquinoline-1,4′-piperidine]]",< 0.5,–
"CN1CCc2ccccc2C12CCN(Cc1ccncc1)CC2 [Example 83, 2-methyl-1′-(pyridin-4-ylmethyl)-3,4-dihydro-2H-spiro[isoquinoline-1,4′-piperidine]]",–,++
"CN1CCc2ccccc2C12CCN(Cc1cccnc1)CC2 [Example 84, 2-methyl-1′-(pyridin-3-ylmethyl)-3,4-dihydro-2H-spiro[isoquinoline-1,4′-piperidine]]",< 0.5,–
"CC(C(=O)N1CCC(F)CC1)N1CCC2(CC1)c1ccccc1CCN2C (stereo not shown) [Example 86, 1-(4-fluoropiperidin-1-yl)-2-(2-methyl-3,4-dihydro-2H-spiro[isoquinoline-1,4′-piperidine]-1′-yl)propan-1-one]",–,++
"CC(C)CN(C)C(=O)CN1CCC2(CC1)c1ccccc1CCN2C [Example 87, N-isobutyl-N-methyl-2-(2-methyl-3,4-dihydro-2H-spiro[isoquinoline-1,4′-piperidine]-1′-yl)acetamide]",–,++
"CN1CCc2ccccc2C12CCN(CC(=O)N1CCCC(F)(F)C1)CC2 [Example 88, 1-(3,3-difluoropiperidin-1-yl)-2-(2-methyl-3,4-dihydro-2H-spiro[isoquinoline-1,4′-piperidine]-1′-yl)ethanone]",–,++
"CCN(C(=O)CN1CCC2(CC1)c1ccccc1CCN2C)C(C)C [Example 89, N-ethyl-N-isopropyl-2-(2-methyl-3,4-dihydro-2H-spiro[isoquinoline-1,4′-piperidine]-1′-yl)acetamide]",< 0.5,–
"CN1CCc2ccccc2C12CCN(CC(=O)N1CCCC1)CC2 [Example 90, 2-(2-methyl-3,4-dihydro-2H-spiro[isoquinoline-1,4′-piperidine]-1′-yl)-1-(pyrrolidin-1-yl)ethanone]",–,++
"CN1CCc2ccccc2C12CCN(CC(=O)N1CCC(C(F)(F)F)CC1)CC2 [Example 91, 2-(2-methyl-3,4-dihydro-2H-spiro[isoquinoline-1,4′-piperidine]-1′-yl)-1-(4-(trifluoromethyl)piperidin-1-yl)ethanone]",< 0.5,–
"CN1CCc2ccccc2C12CCN(CC(=O)N1CCC(F)(F)C1)CC2 [Example 92, 1-(3,3-difluoropyrrolidin-1-yl)-2-(2-methyl-3,4-dihydro-2H-spiro[isoquinoline-1,4′-piperidine]-1′-yl)ethanone]",–,++
"CN(Cc1ccccc1)C(=O)CN1CCC2(CC1)c1ccccc1CCN2C [Example 93, N-benzyl-N-methyl-2-(2-methyl-3,4-dihydro-2H-spiro[isoquinoline-1,4′-piperidine]-1′-yl)acetamide]",< 0.1,–
"CN1CCc2ccccc2C12CCN(CC(=O)N1CC[C@H](F)C1)CC2 [Example 94, (S)-1-(3-fluoropyrrolidin-1-yl)-2-(2-methyl-3,4-dihydro-2H-spiro[isoquinoline-1,4′-piperidine]-1′-yl)ethanone]",–,++
"CN1CCc2ccccc2C12CCN(CC(=O)N1CC[C@@H](F)C1)CC2 [Example 95, (R)-1-(3-fluoropyrrolidin-1-yl)-2-(2-methyl-3,4-dihydro-2H-spiro[isoquinoline-1,4′-piperidine]-1′-yl)ethanone]",–,++
"CN1CCc2ccccc2C12CCN(CC(O)c1cccnc1)CC2 (stereo not shown) [Example 96, 2-(2-methyl-3,4-dihydro-2H-spiro[isoquinoline-1,4′-piperidine]-1′-yl)-1-(pyridin-3-yl)etanol]",–,++
"CN1CCc2ccccc2C12CCN(CC(O)c1ccccn1)CC2 (stereo not shown) [Example 97, 2-(2-methyl-3,4-dihydro-2H-spiro[isoquinoline-1,4′-piperidine]-1′-yl)-1-(pyridin-2-yl)ethanol]",–,++

# Same assay, conditions: combined class for Ki-μ ([3H]-DAMGO, CHO-K1 membranes) and Ki-σ1 ([3H](+)-pentazocine, HEK-293 membranes)
row,Structure (SMILES),Ki [µM]
1,"CN1CCc2ccccc2C12CCN(CC(=O)N1CCC(C(C)(C)O)CC1)CC2 [Example 59, 1-(4-(2-hydroxypropan-2-yl)piperidin-1-yl)-2-(2-methyl-3,4-dihydro-2H-spiro[isoquinoline-1,4′-piperidine]-1′-yl)ethanone]",≥ 0.5
2,"CN1CCc2ccccc2C12CCN(CCN1CCOCC1=O)CC2 [Example 80, 4-(2-(2-methyl-3,4-dihydro-2H-spiro[isoquinoline-1,4′-piperidine]-1′-yl)ethyl)morpholin-3-one]",≥ 0.5
3,"CN1CCc2ccccc2C12CCN(CCc1cccc([N+](=O)[O-])c1)CC2 [Example 85, 2-methyl-1′-(3-nitrophenethyl)-3,4-dihydro-2H-spiro[isoquinoline-1,4′-piperidine]]",≥ 0.5

# From US10407428B2, “Spiro-isoquinoline-1,4′-piperidine compounds having multimodal activity against pain” (ESTEVE PHARMACEUTICALS, S.A., priority 2014, dated 2019)
